These results are taken from US5939523A, “Purification of dalbaheptide antibiotics by isoelectric focusing” (Gruppo Lepetit SpA, priority 1995, dated 1999).

This data set in a line: Analytical immobilized pH gradient (IPG) gels for determining pI values. The data set is classed as physicochemical. Particulars: analytical IPG gel, pH interval 8.0 to 9.0, mixture of 8M urea and 1% CHAPS. The text has this:
Preparation of Analytical Immobilized pH Gradient (IPG) Gels, for Determining the pI Values of the Main Component and of the Impurities
Gel dimension: 25×10 cm, 0, 5 mm thick; pH interval: 7.0 to 10.0.
The IPG ranges are set in a 5% T, 4% C polyacrylamide matrix, according to the preparation recipe disclosed in Ref. 110. After preparing the two limiting, acidic and basic mixtures, they are titrated (with a weak acid and a weak base) to pH values close to neutrality. This is important in order to ensure uniform polymerization and efficient monomer conversion throughout the preformed pH gradient. Upon gel washing in distilled water (3×30 min), all added titrants (as well as catalysts and ungrafted monomers) are efficiently removed. The gels are then equilibrated for 30 min in 2% glycerol solution, dried in air and reswollen in a mixture of 8M urea and 3.5% CHAPS, overnight. The sample is applied in surface wells at the anodic gel side in concentrations from 80 to 600 μg/track. […]
For exactly determining the pI value of the amide derivative of factor B0 and factor B1, the above procedure is repeated under the same conditions, in the pH interval from 8.0 to 9.0 using a mixture of 8M urea and 1% CHAPS. The so determined pI value of the amide derivative of factor B0 is 8.56, whilst the pI value of the amide derivative of factor B1 is 8.40.

As to “6^B -decarboxy-6^B -(hydroxymethyl)-N^63 -3-(dimethyl-amino)propyl amide derivative of antibiotic A40926 factor B1 [amide derivative of factor B1]”, the pI value is 8.40.
For “6^B -decarboxy-6^B -(hydroxymethyl)-N^63 -3-(dimethyl-amino)propyl amide derivative of antibiotic A40926 factor B0 [amide derivative of factor B0]”, the pI value is 8.56.
